pIC50: −log10 of the molar value.
Legend:
Test in all cases: Kinase selectivity profile, kinase inhibition IC50 (Table 4), ATP 100 μM
Type in all cases: biochemical
[1] = molecular target: T1, protein kinases (panel of Table 4) (Homo sapiens, UniProt O14965); details: kinase Aurora A
T1 construct: other: kinase Aurora A; ATP 100 μM
T1 sequence (O14965 1-403): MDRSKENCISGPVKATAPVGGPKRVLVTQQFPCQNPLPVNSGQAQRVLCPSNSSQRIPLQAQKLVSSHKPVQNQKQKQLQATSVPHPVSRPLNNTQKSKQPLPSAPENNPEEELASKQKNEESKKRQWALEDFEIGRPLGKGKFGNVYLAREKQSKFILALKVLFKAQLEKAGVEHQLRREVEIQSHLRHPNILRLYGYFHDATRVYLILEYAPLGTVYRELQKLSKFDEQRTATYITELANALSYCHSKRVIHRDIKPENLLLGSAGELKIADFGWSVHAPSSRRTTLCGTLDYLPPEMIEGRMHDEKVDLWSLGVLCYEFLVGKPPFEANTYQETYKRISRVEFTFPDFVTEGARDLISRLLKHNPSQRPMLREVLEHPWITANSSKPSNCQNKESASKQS
Description: (§1) For the assays shown in Table 3, the kinases were assayed at the following ATP concentrations: SAPK4, PKBΔph, GSK3b, SAPK3, CK2, MKK1, PIM2, IKKB, ERK8, and PRK2 at 5 μM; JNK, PRAK, ROCK-II, SAPK2b, CDK2, CHK1, MSK1, CSK, P70S6K, PKA, CK1, MAPKAP-K2, SGK, PKCa, PDK1, NEK 7, and MAPKAP-K3 at 20 μM; SAPK2a, LCK, AMPK, MAPK2, DYRK1a, MAPKAP-K1a, NEK-6, NEK2a, PBK, CAMK-1, SRPK-1, JNK3, MNK2, RSK2, MNK1, PKBB, and SmMLCK at 50 μM. For the assays in Table 4 the ATP concentration was 100 μM throughout.

[2] = molecular target: T2, protein kinases (panel of Table 4) (Homo sapiens, UniProt P00519); details: kinase Ab1
T2 construct: other: kinase Ab1; ATP 100 μM
T2 sequence (P00519 whole entry): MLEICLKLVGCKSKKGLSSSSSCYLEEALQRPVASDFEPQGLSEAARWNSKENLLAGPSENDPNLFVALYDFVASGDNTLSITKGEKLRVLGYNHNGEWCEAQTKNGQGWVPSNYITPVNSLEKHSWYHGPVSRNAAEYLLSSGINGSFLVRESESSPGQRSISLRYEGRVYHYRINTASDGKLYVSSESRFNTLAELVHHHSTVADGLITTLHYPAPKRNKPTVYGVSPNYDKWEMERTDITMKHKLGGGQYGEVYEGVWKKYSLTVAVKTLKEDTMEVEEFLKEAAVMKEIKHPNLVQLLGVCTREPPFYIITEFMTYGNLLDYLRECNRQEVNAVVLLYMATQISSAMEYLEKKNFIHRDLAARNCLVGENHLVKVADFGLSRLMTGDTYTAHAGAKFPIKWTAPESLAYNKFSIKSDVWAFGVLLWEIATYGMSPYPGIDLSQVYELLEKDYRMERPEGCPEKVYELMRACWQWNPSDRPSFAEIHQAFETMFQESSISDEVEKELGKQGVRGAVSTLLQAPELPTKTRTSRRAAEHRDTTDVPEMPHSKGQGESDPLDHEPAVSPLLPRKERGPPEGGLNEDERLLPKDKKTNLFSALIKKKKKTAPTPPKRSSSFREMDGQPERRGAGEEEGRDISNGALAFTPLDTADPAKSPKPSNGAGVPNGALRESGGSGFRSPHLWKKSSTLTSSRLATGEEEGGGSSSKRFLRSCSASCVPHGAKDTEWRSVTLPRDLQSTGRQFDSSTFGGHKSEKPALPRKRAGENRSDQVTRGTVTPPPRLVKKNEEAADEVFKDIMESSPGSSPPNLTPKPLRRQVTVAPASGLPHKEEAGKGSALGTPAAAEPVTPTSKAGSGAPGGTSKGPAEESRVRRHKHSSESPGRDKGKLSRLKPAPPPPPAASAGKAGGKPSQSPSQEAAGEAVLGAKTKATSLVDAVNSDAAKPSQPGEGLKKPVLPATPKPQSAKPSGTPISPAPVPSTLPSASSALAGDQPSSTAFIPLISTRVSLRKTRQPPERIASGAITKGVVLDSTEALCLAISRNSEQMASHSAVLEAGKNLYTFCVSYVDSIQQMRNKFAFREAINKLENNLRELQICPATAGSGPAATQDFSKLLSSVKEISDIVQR
Description: as §1

[3] = molecular target: T3, protein kinases (panel of Table 4) (Homo sapiens, UniProt P06239); details: kinase Lck
T3 construct: other: kinase Lck; ATP 100 μM
Description: as §1

[4] = molecular target: T4, protein kinases (panel of Table 4) (Homo sapiens, UniProt P06493); details: kinase CDK1B
T4 construct: other: kinase CDK1B; ATP 100 μM
T4 sequence (P06493 whole entry): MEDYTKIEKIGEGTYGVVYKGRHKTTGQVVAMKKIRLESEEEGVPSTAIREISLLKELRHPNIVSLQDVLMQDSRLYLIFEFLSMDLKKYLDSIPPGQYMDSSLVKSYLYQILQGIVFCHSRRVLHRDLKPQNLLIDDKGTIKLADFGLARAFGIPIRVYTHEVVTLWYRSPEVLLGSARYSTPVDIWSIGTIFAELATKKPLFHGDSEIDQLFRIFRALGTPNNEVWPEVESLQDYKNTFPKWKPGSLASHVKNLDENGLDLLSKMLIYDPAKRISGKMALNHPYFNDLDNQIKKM
Description: as §1

[5] = molecular target: T5, protein kinases (panel of Table 4) (Homo sapiens, UniProt P09619); details: kinase PDGFb
T5 construct: other: kinase PDGFb; ATP 100 μM
T5 sequence (P09619 whole entry): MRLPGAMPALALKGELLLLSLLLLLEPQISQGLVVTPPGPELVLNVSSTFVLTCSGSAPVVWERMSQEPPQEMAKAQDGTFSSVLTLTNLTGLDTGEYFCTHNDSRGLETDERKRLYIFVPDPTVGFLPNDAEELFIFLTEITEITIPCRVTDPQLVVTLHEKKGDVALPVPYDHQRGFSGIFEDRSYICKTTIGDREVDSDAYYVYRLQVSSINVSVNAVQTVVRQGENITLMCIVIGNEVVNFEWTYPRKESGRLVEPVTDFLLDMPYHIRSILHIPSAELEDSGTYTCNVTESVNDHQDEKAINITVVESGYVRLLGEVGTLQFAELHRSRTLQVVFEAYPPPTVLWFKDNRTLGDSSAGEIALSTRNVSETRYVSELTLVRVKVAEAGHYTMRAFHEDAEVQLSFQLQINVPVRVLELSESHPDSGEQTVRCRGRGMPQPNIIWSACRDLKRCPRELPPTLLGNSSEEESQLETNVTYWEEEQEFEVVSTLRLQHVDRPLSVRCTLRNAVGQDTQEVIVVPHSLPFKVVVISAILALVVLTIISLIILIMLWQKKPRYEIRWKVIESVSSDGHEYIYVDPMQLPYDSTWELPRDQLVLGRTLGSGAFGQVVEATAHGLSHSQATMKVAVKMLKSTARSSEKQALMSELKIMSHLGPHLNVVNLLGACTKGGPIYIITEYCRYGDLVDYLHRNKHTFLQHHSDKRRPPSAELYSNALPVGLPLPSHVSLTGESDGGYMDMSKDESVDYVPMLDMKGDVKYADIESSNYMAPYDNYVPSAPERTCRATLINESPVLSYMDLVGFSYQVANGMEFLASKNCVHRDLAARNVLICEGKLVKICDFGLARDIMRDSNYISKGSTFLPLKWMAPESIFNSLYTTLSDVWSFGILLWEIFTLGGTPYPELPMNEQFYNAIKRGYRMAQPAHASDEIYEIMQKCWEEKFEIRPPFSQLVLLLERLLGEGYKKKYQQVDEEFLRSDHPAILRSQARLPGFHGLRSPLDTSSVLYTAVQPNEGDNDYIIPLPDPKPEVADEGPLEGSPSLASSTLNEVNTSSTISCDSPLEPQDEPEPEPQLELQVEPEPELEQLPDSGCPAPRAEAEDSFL
Description: as §1

[6] = molecular target: T6, protein kinases (panel of Table 4) (Homo sapiens, UniProt P11802); details: kinase CDK4D1
T6 construct: other: kinase CDK4D1; ATP 100 μM
T6 sequence (P11802 whole entry): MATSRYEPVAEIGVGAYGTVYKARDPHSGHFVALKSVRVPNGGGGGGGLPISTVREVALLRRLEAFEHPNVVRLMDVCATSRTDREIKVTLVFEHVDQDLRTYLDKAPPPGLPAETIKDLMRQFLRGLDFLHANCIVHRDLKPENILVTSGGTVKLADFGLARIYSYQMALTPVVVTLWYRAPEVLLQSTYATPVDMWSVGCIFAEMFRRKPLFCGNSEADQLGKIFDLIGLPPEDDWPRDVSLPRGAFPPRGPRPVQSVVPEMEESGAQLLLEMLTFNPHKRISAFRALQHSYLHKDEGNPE
Description: as §1

[7] = molecular target: T7, protein kinases (panel of Table 4) (Homo sapiens, UniProt P28482); details: kinase ERK2
T7 construct: other: kinase ERK2; ATP 100 μM
T7 sequence (P28482 whole entry): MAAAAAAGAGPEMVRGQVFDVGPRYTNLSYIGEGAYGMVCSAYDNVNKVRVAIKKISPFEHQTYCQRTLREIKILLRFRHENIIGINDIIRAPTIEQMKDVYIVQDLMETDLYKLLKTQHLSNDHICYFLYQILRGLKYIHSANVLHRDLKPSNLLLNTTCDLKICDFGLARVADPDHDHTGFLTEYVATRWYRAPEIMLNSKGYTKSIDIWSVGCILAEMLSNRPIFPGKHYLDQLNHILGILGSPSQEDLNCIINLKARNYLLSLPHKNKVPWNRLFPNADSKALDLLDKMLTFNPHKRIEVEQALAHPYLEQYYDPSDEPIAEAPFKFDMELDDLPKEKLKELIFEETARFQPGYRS
Description: as §1

[8] = molecular target: T8, protein kinases (panel of Table 4) (Homo sapiens, UniProt P36888); details: kinase Flt3
T8 construct: other: kinase Flt3; ATP 100 μM
T8 sequence (P36888 1-993): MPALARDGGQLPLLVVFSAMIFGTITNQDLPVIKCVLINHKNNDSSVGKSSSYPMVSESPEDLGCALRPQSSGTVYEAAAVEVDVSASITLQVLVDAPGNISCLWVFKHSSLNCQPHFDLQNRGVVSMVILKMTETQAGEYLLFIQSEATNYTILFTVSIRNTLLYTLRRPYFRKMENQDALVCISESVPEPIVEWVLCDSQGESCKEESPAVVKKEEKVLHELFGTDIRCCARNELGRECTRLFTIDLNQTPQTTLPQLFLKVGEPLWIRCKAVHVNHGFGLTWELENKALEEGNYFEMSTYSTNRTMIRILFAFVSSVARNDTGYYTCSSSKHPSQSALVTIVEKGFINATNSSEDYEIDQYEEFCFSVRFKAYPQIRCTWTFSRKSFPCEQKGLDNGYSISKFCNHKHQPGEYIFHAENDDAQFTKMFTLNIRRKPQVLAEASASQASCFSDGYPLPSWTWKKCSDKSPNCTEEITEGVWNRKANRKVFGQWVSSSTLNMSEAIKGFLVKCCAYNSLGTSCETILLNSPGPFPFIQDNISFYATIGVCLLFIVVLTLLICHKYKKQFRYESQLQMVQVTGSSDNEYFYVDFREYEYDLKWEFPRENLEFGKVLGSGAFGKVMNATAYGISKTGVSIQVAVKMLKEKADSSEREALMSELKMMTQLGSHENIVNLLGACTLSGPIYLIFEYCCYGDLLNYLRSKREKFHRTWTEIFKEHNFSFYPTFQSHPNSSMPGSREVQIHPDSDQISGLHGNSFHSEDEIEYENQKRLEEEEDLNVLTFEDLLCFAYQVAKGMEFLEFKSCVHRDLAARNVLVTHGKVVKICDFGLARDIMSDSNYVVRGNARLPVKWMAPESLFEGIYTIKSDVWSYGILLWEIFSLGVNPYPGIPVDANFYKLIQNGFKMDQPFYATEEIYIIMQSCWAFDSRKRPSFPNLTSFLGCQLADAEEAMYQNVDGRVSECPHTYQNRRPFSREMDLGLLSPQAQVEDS
Description: as §1

[9] = molecular target: T9, protein kinases (panel of Table 4) (Homo sapiens, UniProt P49841); details: kinase GSK3b
T9 construct: other: kinase GSK3b; ATP 100 μM
T9 sequence (P49841 whole entry): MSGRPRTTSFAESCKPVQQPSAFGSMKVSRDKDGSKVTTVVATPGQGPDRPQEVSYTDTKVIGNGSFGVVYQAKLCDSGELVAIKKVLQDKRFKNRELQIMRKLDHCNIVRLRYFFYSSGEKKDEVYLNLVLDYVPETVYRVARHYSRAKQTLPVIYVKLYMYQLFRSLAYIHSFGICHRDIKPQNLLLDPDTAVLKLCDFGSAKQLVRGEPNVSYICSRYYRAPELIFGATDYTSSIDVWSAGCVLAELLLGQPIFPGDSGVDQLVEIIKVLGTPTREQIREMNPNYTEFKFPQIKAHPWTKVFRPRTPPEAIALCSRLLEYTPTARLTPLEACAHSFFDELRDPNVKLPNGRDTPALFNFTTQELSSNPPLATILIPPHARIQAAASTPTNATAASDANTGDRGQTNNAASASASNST
Description: as §1

[10] = molecular target: T10, protein kinases (panel of Table 4) (Homo sapiens, UniProt P50613); details: kinase CDK7H
T10 construct: other: kinase CDK7H; ATP 100 μM
T10 sequence (P50613 whole entry): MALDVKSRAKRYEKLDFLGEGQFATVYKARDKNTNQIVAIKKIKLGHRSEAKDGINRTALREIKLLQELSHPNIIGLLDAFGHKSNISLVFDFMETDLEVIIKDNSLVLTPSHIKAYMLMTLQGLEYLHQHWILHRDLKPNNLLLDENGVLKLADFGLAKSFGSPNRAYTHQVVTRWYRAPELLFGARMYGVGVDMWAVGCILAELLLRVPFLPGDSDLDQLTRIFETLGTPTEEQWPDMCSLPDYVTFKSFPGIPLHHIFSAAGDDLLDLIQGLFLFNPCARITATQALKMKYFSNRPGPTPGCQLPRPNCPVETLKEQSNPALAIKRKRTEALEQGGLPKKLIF
Description: as §1

[11] = molecular target: T11, protein kinases (panel of Table 4) (Homo sapiens, UniProt P53350); details: kinase Plk1
T11 construct: other: kinase Plk1; ATP 100 μM
T11 sequence (P53350 whole entry): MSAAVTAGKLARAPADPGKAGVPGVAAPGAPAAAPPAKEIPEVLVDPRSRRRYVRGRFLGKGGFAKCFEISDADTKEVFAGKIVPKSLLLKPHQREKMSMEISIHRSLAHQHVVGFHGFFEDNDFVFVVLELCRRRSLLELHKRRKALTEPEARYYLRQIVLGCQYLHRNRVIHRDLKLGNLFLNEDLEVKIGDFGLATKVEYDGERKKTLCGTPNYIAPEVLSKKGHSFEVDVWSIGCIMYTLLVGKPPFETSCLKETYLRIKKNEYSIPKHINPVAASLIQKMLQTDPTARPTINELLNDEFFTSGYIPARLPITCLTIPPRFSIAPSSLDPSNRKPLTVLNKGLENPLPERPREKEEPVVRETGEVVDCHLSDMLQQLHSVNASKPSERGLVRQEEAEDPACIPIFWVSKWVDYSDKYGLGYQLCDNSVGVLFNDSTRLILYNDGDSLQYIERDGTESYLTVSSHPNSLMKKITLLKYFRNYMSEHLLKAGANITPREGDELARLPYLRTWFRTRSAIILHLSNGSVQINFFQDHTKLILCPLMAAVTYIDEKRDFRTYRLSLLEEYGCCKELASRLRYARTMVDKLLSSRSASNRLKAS
Description: as §1

[12] = molecular target: T12, protein kinases (panel of Table 4) (Homo sapiens, UniProt Q00534); details: kinase CDK6D3
T12 construct: other: kinase CDK6D3; ATP 100 μM
T12 sequence (Q00534 whole entry): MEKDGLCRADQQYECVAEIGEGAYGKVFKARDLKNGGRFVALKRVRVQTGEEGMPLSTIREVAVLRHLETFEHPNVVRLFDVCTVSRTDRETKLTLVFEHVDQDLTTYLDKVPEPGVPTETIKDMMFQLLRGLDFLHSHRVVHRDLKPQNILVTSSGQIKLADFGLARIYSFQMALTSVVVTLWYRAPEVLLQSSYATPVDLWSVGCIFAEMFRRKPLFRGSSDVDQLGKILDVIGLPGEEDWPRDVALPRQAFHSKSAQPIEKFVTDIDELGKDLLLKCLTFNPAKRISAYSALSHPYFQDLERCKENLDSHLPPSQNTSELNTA
Description: as §1

[13] = molecular target: T13, protein kinases (panel of Table 4); details: kinase CaMKII
T13 construct: other: kinase CaMKII; ATP 100 μM
Description: as §1

[14] = molecular target: T14, protein kinases (panel of Table 4); details: kinase PKC
T14 construct: other: kinase PKC; ATP 100 μM
Description: as §1

pIC50 [1]	pIC50 [2]	pIC50 [3]	pIC50 [4]	pIC50 [5]	pIC50 [6]	pIC50 [7]	pIC50 [8]	pIC50 [9]	pIC50 [10]	pIC50 [11]	pIC50 [12]	pIC50 [13]	pIC50 [14]	SMILES
7.40	6.43	6.31	6.70	6.31	7.77	< 5.00	7.52	6.77	7.27	< 5.00	7.41	5.37	5.26	CNc1nc(C)c(-c2ccnc(Nc3cccc(S(N)(=O)=O)c3)n2)s1 [Compound 19, 3-[4-(4-Methyl-2-methylamino-thiazol-5-yl)-pyrimidin-2-ylamino]-benzenesulfonamide]
6.49	5.68	6.30	6.59	6.28	6.74	< 5.00	7.19	7.03	6.70	< 5.00	6.48	< 5.00	< 5.00	CNc1nc(C)c(-c2ccnc(Nc3cccc(S(C)(=O)=O)c3)n2)s1 [Compound 27, (3-Methanesulfonyl-phenyl)-[4-(4-methyl-2-methylamino-thiazol-5-yl)-pyrimidin-2-yl]-amine]
5.96	5.42	5.31	< 5.00	5.18	< 5.00	< 5.00	6.77	5.74	5.23	< 5.00	< 5.00	< 5.00	5.19	CNc1nc(C)c(-c2ccnc(Nc3ccc(C)c(S(=O)(=O)N4CCOCC4)c3)n2)s1 [Compound 37, [4-(4-Methyl-2-methylamino-thiazol-5-yl)-pyrimidin-2-yl]-[4-methyl-3-(morpholine-4-sulfonyl)-phenyl]-amine]
6.35	5.64	5.59	< 5.00	5.32	< 5.00	< 5.00	6.70	5.66	6.19	< 5.00	5.32	5.21	5.60	Cc1ccc(Nc2nccc(-c3sc(N)nc3C)n2)cc1S(=O)(=O)N1CCOCC1 [Compound 38, [4-(2-Amino-4-methyl-thiazol-5-yl)-pyrimidin-2-yl]-[4-methyl-3-(morpholine-4-sulfonyl)-phenyl]-amine]
6.80	5.68	5.74	5.54	5.72	5.80	< 5.00	6.74	6.35	6.21	< 5.00	5.68	< 5.00	5.24	COCCNS(=O)(=O)c1cccc(Nc2nccc(-c3sc(N)nc3C)n2)c1 [Compound 55, 3-[4-(2-Amino-4-methyl-thiazol-5-yl)-pyrimidin-2-ylamino]-N-(2-methoxy-ethyl)-benzenesulfonamide]

SMILES	pIC50 [1]	pIC50 [2]	pIC50 [3]	pIC50 [4]	pIC50 [5]	pIC50 [6]	pIC50 [7]	pIC50 [8]	pIC50 [9]	pIC50 [10]	pIC50 [11]	pIC50 [12]	pIC50 [13]	pIC50 [14]
CCNc1nc(C)c(-c2ccnc(Nc3ccc(N4CCNCC4)cc3)n2)s1 [Compound 59, [4-(2-Ethylamino-4-methyl-thiazol-5-yl)-pyrimidin-2-yl]-(4-piperazin-1-yl-phenyl)-amine]	7.05	6.33	6.92	5.92	6.68	7.34	< 5.00	7.77	< 5.00	6.80	< 5.00	7.54	6.00	< 5.00

Source: patent US20090137572A1, “2-substituted-4-heteroaryl-pyrimidines useful for the treatment of proliferative disorders” (priority 2004, published 2009)
